This is an account of results in patent publication US20190085024A1, “Alpha-Ketoamide Inhibitors Of Cysteine Proteases” (Phelix Therapeutics, priority 2017, published 2019).

One test concerns the target Cathepsin L (Homo sapiens, UniProt P07711). The experiment in a line: Cathepsin L enzyme assay. The class given is biochemical. The settings on record: Ki by Morrison equation; pH 5.5, substrate Z-Phe-Arg-Amc; read-out: Cat L. The text has this:
Two wells contained DMSO only for controls.
Velocity was converted to μM/sec.

In the next test the target is Calpain. The experiment in a line: Calpain enzyme assay. Type of test: biochemical. The conditions noted are these: Ki by Morrison equation; pH 7.5, 5 mM CaCl2.
A further test has as its system MERS WT. In words: microbe, parasite or virus in culture. The class given is cell-based. The settings on record: Middle East respiratory syndrome-related coronavirus, read-out: MERS WT (μM).
The next test has as its target Cathepsin B (Homo sapiens, UniProt P07858). In words: Cathepsin B enzyme assay. The settings on record: Cat B (μM), Ki by Morrison equation; pH 6.0, substrate Z-Phe-Arg-Amc.

*1 amine or outer side, *2 acyl side, *3 side chain or, on linkers, in order; H or OH if unused. Where a SMILES comes first, the peptide text is derived from it. [ ]: non-standard residue; d: D form. The star is where a group is joined. ξ: configuration not given here. ξ3Amino2oxobutanoyl = CC(N[*:1])C(=O)C(=O)[*:2]; 2Nal = N[CH](Cc1ccc2ccccc2c1)C(=O)O; Cbz = O=C(OCc1ccccc1)* A value given as a limit tells only on which side of the number the result lay.

Sequence of Cathepsin L (P07711 114-333, species assumed): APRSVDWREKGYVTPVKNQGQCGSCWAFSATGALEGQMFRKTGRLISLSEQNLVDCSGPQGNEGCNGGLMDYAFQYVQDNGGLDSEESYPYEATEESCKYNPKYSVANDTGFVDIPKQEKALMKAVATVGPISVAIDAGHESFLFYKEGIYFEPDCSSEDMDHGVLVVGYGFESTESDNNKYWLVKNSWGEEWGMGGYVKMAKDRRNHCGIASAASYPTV

`CC(NC(=O)C(Cc1ccccc1)NC(=O)Cc1ccccc1)C(=O)C(=O)NC(Cc1ccccc1C(F)(F)F)C(=O)NC(Cc1ccc(-c2ccccc2)cc1)C(N)=O` (stereo not drawn) [PHELIX265, N-(1-((3-([1,1′-biphenyl]-4-yl)-1-amino-1-oxopropan-2-yl)amino)-1-oxo-3-(2-(trifluoromethyl)phenyl)propan-2-yl)-2-oxo-3-(3-phenyl-2-(2-phenylacetamido)propanamido)butanamide]: the Ki is 302 nM at Cathepsin L, greater than 10 µM on Calpain and greater than 10 µM at Cathepsin B. Further, the IC50 in the test on MERS WT came to 2.2 µM.

`CC(NC(=O)C(Cc1ccccc1)NC(=O)Cc1ccccc1)C(=O)C(=O)NC(Cc1ccc(C(F)(F)F)cc1)C(=O)NC(Cc1ccc(-c2ccccc2)cc1)C(N)=O` (stereo not drawn) [PHELIX261, N-(1-((3-([1,1′-biphenyl]-4-yl)-1-amino-1-oxopropan-2-yl)amino)-1-oxo-3-(4-(trifluoromethyl)phenyl)propan-2-yl)-2-oxo-3-(3-phenyl-2-(2-phenylacetamido)propanamido)butanamide]: the Ki was 2.48 nM at Cathepsin L, greater than 10 µM on Calpain and greater than 10 µM at Cathepsin B. Further, the IC50 in the test on MERS WT stood at 2.56 µM.

As to `CCC(C)C(NC(=O)C(CC(C)C)NC(=O)OCc1ccccc1)C(=O)C(=O)NC(CCCNC(N)=O)C(=O)NC(Cc1ccc2ccccc2c1)C(N)=O` (stereo not drawn) [PHELIX315, benzyl (1-((1-((1-((1-amino-3-(naphthalen-2-yl)-1-oxopropan-2-yl)amino)-1-oxo-5-ureidopentan-2-yl)amino)-4-methyl-1,2-dioxohexan-3-yl)amino)-4-methyl-1-oxopentan-2-yl)carbamate], the Ki is 0.47 nM at Cathepsin L, 0.00148 µM on Calpain and greater than 10 µM at Cathepsin B.

For the compound `CC(NC(=O)C(Cc1ccccc1)NC(=O)Cc1ccccc1)C(=O)C(=O)NC(Cc1ccc(F)cc1)C(=O)NC(Cc1ccc(-c2ccccc2)cc1)C(N)=O` (stereo not drawn) [PHELIX262], the figures for the Ki on Cathepsin L, at Calpain and on Cathepsin B were 0.04 nM, greater than 10 µM and 0.435 µM, respectively.

Take `CCC(C)C(NC(=O)C(=O)C(C)NC(=O)[C@H](Cc1cncs1)NC(=O)Cc1ccccc1)C(=O)NC(C)(C)C(=O)O` (stereo partly drawn) [PHELIX173, (12S)-5-(sec-butyl)-2,2,9-trimethyl-4,7,8,11,14-pentaoxo-15-phenyl-12-(thiazol-5-ylmethyl)-3,6,10,13-tetraazapentadecanoic acid]: the Ki on Cathepsin L was 3330 nM; at Calpain, greater than 100 µM; on Cathepsin B, 0.72 µM.

In the case of `CCC(C)C(NC(=O)C(CC(C)C)NC(=O)C(Cc1ccccc1)NC(=O)OCc1ccccc1)C(=O)C(=O)NC(CCCNC(=N)N)C(N)=O` (stereo not drawn) [PHELIX268, benzyl (1-amino-10-(sec-butyl)-6-carbamoyl-1-imino-13-isobutyl-8,9,12,15-tetraoxo-17-phenyl-2,7,11,14-tetraazaheptadecan-16-yl)carbamate], the Ki came to 0.95 nM at Cathepsin L, 0.0106 µM at Calpain and 0.171 µM on Cathepsin B. Besides, in the test on MERS WT, the IC50 was greater than 30 µM.

As to `CC(NC(=O)C(Cc1ccccc1)NC(=O)Cc1ccccc1)C(=O)C(=O)NC(Cc1ccccc1)C(=O)NC(C)(C)C(=O)O` (stereo not drawn) [PHELIX157, 5,12-dibenzyl-2,2,9-trimethyl-4,7,8,11,14-pentaoxo-15-phenyl-3,6,10,13-tetraazapentadecanoic acid], the Ki was 56.2 nM on Cathepsin L, 34.6 µM on Calpain and 0.0028 µM at Cathepsin B.

As for `CCC(C)C(NC(=O)C(=O)C(C)NC(=O)CCNC(=O)OCc1ccccc1)C(=O)NC(C)(C)C(=O)O` (stereo not drawn) [PHELIX164, 13-(sec-butyl)-9,16,16-trimethyl-3,7,10,11,14-pentaoxo-1-phenyl-2-oxa-4,8,12,15-tetraazaheptadecan-17-oic acid], the values for the Ki at Cathepsin L, on Calpain and at Cathepsin B were greater than 1000 nM, greater than 100 µM and 34.6 µM, respectively.

For the compound `CCC(C)C(NC(=O)C(=O)C(C)NC(=O)C(Cc1cccc(C(F)(F)F)c1)NC(=O)Cc1ccccc1)C(=O)NC(C)(C)C(=O)O` (stereo not drawn) [PHELIX170, 5-(sec-butyl)-2,2,9-trimethyl-4,7,8,11,14-pentaoxo-15-phenyl-12-(3-(trifluoro-methyl)benzyl)-3,6,10,13-tetraazapentadecanoic acid], the Ki at Cathepsin L was determined as 1190 nM; on Calpain, 59.7 µM; at Cathepsin B, 0.022 µM.

Consider `CC[C@H](C)[C@H](NC(=O)C(=O)C(C)(C)NC(=O)[C@H](Cc1ccccc1)NC(=O)Cc1ccccc1)C(=O)NC(C)(C)C(=O)O` [PHELIX160, 12-benzyl-5-(sec-butyl)-2,2,9,9-tetramethyl-4,7,8,11,14-pentaoxo-15-phenyl-3,6,10,13-tetraazapentadecanoic acid], for which the Ki was determined as 63400 nM on Cathepsin L, 51 µM on Calpain and 111 µM at Cathepsin B.

As to `CCC(C)C(NC(=O)C(=O)C(C)NC(=O)C(Cc1ccccc1)NC(=O)Cc1ccccc1)C(=O)NC(C)(C)C(=O)O` (stereo not drawn) [PHELIX149, 12-benzyl-5-(sec-butyl)-2,2,9-trimethyl-4,7,8,11,14-pentaoxo-15-phenyl-3,6,10,13-tetraazapentadecanoic acid], the figures for the Ki at Cathepsin L, on Calpain and on Cathepsin B were 816 nM, greater than 100 µM and 0.0318 µM, respectively.

With `CCCC(NC(=O)C(=O)C(C)NC(=O)C(Cc1ccccc1)NC(=O)Cc1ccccc1)C(=O)NC(C)(C)C(N)=O` (stereo not drawn) [PHELIX243, N-(1-amino-2-methyl-1-oxopropan-2-yl)-2-(2-oxo-3-(3-phenyl-2-(2-phenylacetamido)propanamido)butanamido)pentanamide], the results for the Ki at Cathepsin L, at Calpain and at Cathepsin B were 5580 nM, greater than 10 µM and greater than 10 µM, respectively.

Take `CC(NC(=O)C(Cc1ccccc1)NC(=O)Cc1ccccc1)C(=O)C(=O)NC(CC1CC1)C(=O)NC(C)(C)C(=O)O` (stereo not drawn) [PHELIX166, 12-benzyl-5-(cyclopropylmethyl)-2,2,9-trimethyl-4,7,8,11,14-pentaoxo-15-phenyl-3,6,10,13-tetraazapentadecanoic acid]: the Ki at Cathepsin L is 586 nM; at Calpain, greater than 100 µM; on Cathepsin B, 0.0081 µM.

For `CCC(C)C(NC(=O)C(=O)C(C)NC(=O)C(CC(C)C)NC(=O)Cc1ccccc1)C(=O)NC(C)(C)C(=O)O` (stereo not drawn) [PHELIX171, 5-(sec-butyl)-12-isobutyl-2,2,9-trimethyl-4,7,8,11,14-pentaoxo-15-phenyl-3,6,10,13-tetraazapentadecanoic acid], the values for the Ki on Cathepsin L, at Calpain and at Cathepsin B were 632 nM, 3.9 µM and 0.56 µM, respectively.

As to `CCC(C)C(NC(=O)C(=O)C(Cc1ccccc1)NC(=O)C(Cc1ccccc1)NC(=O)Cc1ccccc1)C(=O)NC(C)(C)C(=O)O` (stereo not drawn) [PHELIX150, 9,12-dibenzyl-5-(sec-butyl)-2,2-dimethyl-4,7,8,11,14-pentaoxo-15-phenyl-3,6,10,13-tetraazapentadecanoic acid], the Ki on Cathepsin L stood at 39.2 nM; at Calpain, 5.11 µM; at Cathepsin B it was 0.0303 µM.

Take `CCC(C)C(NC(=O)C(=O)C(C)NC(=O)C(Cc1ccccc1)NC(=O)Cc1ccc(-c2ccccc2)cc1)C(=O)NC(C)(C)C(=O)O` (stereo not drawn) [PHELIX159, 15-([1,1′-biphenyl]-4-yl)-12-benzyl-5-(sec-butyl)-2,2,9-trimethyl-4,7,8,11,14-pentaoxo-3,6,10,13-tetraazapentadecanoic acid]: the Ki is 2450 nM at Cathepsin L, 16.6 µM on Calpain and 0.0414 µM on Cathepsin B.

Consider `CC(C)CC(NC(=O)C(Cc1ccccc1)NC(=O)OCc1ccccc1)C(=O)NC(C)C(=O)C(=O)NCC(=O)NC(Cc1ccc2ccccc2c1)C(N)=O` (stereo not drawn) [PHELIX258, benzyl (1-amino-12-isobutyl-9-methyl-2-(naphthalen-2-ylmethyl)-1,4,7,8,11,14-hexaoxo-16-phenyl-3,6,10,13-tetraazahexadecan-15-yl)carbamate] (Cbz-FL[ξ3Amino2oxobutanoyl]G[2Nal]-NH2; configuration not given here), for which the Ki at Cathepsin L is 6.14 nM; on Calpain it was 0.0019 µM; at Cathepsin B it was 0.42 µM.

Regarding `CC[C@H](C)[C@H](NC(=O)C(=O)C(Cc1ccccc1)NC(=O)C(Cc1ccccc1)NC(=O)Cc1ccccc1)C(=O)N1CCC[C@H]1C(=O)O` (stereo partly drawn) [PHELIX156, (2-oxo-4-phenyl-3-(3-phenyl-2-(2-phenylacetamido)propanamido)butanoyl)isoleucylproline], the Ki on Cathepsin L turned out to be 1.58 nM; at Calpain, 9.85 µM; on Cathepsin B it was 0.0102 µM.

On to `CCC(C)C(NC(=O)C(=O)C(C)NC(=O)C(Cc1ccccc1)NC(=O)Cc1cccc2ccccc12)C(=O)NC(C)(C)C(=O)O` (stereo not drawn) [PHELIX163, 12-benzyl-5-(sec-butyl)-2,2,9-trimethyl-15-(naphthalen-1-yl)-4,7,8,11,14-pentaoxo-3,6,10,13-tetraazapentadecanoic acid], for which the Ki worked out at 429 nM at Cathepsin L and 0.0485 µM on Cathepsin B.

In the case of `CCC(C)C(NC(=O)C(=O)C(C)(C)NC(=O)Cc1ccccc1)C(=O)NC(C)(C)C(=O)O` (stereo not drawn) [PHELIX139, 2-methyl-2-(3-methyl-2-(3-methyl-2-oxo-3-(2-phenylacetamido)butanamido)pentanamido)propanoic acid], the results for the Ki on Cathepsin L and on Cathepsin B were 57400 nM and 1130 µM, respectively.

With `CC[C@H](C)[C@H](NC(=O)C(=O)C(Cc1ccccc1)NC(=O)C(Cc1ccccc1)NC(=O)Cc1ccccc1)C(=O)N1CSCC1C(=O)O` (stereo partly drawn) [PHELIX174, 3-((2-oxo-4-phenyl-3-(3-phenyl-2-(2-phenylacetamido)propanamido)butanoyl)isoleucyl)thiazolidine-4-carboxylic acid], the Ki at Cathepsin L worked out at 461 nM; at Cathepsin B, 0.157 µM.
